{"source": "ChEMBL document CHEMBL5113527", "about": "“First-in-Class Hydrazide-Based HDAC6 Selective Inhibitor with Potent Oral Anti-Inflammatory Activity by Attenuating NLRP3 Inflammasome Activation” (J Med Chem, 2022)", "key": {"[1]": {"test": "Brain concentration in CD-1 mouse at 20 mg/kg measured after 1 hrs by LC-MS/MS analysis", "type": "ADME, organism-based", "settings": "read-out: Ct"}, "Histone deacetylase 7": {"biological_target": "T1, Histone deacetylase 7 (Homo sapiens, UniProt Q8WUI4)", "T1 sequence (Q8WUI4 whole entry)": "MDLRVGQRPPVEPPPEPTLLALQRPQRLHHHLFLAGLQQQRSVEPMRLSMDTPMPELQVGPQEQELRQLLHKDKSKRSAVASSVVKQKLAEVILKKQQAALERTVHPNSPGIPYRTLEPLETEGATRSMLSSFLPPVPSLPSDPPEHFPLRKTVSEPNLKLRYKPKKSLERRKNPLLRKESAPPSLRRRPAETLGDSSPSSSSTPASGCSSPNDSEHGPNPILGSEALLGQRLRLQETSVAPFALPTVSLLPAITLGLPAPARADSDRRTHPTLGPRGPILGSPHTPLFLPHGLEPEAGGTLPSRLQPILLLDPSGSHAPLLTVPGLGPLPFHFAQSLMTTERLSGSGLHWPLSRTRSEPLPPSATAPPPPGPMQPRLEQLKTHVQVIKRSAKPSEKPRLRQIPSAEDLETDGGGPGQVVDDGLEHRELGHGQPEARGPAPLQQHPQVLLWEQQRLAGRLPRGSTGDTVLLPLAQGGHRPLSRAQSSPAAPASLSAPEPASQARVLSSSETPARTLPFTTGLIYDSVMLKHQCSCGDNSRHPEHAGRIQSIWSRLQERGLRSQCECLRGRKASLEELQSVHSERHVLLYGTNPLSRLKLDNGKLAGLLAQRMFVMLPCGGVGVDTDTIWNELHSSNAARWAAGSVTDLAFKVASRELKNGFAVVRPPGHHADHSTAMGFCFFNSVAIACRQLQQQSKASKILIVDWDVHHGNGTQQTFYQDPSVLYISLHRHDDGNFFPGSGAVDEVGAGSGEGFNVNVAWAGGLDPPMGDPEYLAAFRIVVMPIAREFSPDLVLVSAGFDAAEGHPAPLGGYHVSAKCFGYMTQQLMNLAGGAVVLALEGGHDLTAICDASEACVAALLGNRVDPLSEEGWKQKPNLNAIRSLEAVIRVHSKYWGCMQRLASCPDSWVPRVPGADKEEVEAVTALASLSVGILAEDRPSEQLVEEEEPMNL", "test": "Inhibition of recombinant HDAC7 (unknown origin) using Boc-Lys (trifluoroacetyl) AMC as substrate preincubated for 1 hr followed by substrate addition and measured after 2 hrs by fluorescence based microplate reader analysis"}, "[2]": {"biological_target": "T2, Protein deacetylase HDAC6 (Homo sapiens, UniProt Q9UBN7)", "T2 sequence (Q9UBN7 whole entry)": "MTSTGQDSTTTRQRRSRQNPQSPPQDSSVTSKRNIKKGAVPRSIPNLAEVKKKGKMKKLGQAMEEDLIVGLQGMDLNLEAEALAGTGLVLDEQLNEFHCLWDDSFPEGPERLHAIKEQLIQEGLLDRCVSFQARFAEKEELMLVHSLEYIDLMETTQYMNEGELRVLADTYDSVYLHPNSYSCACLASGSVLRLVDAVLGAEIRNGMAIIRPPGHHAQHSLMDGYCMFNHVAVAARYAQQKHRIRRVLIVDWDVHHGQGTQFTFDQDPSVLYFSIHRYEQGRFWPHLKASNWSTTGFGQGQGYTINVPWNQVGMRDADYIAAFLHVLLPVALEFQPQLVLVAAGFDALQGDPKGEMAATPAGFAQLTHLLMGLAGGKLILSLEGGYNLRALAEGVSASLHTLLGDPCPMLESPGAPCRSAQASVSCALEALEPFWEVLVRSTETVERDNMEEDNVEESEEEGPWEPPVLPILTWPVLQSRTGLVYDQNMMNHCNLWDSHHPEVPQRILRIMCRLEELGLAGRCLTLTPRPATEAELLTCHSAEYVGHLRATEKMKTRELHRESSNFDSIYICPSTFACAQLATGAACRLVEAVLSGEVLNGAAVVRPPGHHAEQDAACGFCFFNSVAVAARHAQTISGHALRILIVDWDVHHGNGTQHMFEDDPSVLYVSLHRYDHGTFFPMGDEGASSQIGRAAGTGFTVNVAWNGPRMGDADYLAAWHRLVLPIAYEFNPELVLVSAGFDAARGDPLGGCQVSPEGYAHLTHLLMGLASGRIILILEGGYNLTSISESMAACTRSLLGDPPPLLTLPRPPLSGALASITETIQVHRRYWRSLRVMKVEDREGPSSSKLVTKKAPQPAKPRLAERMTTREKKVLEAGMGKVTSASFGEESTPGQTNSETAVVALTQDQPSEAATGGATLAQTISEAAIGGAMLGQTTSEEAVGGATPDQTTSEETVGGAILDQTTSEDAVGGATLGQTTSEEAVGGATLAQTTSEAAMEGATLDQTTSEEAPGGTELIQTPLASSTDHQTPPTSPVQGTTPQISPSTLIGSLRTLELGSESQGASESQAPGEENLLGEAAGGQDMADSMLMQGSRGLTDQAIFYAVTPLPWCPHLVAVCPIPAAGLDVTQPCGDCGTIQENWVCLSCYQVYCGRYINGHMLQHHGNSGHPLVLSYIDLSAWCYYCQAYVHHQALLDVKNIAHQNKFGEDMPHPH", "test": "Inhibition of recombinant HDAC6 (unknown origin) using Boc-Lys(acetyl)-AMC as substrate preincubated for 60 mins followed by substrate addition and measured after 2 hrs by fluorescence based microplate reader analysis"}, "[3]": {"test": "Inhibition of HDAC11(unknown origin) preincubated for 1 hr followed by substrate addition and measured after 2 hrs by fluorescence based microplate reader analysis", "parameters": "species or system Homo sapiens"}, "Histone deacetylase 9": {"biological_target": "Histone deacetylase 9 (Homo sapiens, UniProt Q9UKV0)", "sequence (Q9UKV0 whole entry)": "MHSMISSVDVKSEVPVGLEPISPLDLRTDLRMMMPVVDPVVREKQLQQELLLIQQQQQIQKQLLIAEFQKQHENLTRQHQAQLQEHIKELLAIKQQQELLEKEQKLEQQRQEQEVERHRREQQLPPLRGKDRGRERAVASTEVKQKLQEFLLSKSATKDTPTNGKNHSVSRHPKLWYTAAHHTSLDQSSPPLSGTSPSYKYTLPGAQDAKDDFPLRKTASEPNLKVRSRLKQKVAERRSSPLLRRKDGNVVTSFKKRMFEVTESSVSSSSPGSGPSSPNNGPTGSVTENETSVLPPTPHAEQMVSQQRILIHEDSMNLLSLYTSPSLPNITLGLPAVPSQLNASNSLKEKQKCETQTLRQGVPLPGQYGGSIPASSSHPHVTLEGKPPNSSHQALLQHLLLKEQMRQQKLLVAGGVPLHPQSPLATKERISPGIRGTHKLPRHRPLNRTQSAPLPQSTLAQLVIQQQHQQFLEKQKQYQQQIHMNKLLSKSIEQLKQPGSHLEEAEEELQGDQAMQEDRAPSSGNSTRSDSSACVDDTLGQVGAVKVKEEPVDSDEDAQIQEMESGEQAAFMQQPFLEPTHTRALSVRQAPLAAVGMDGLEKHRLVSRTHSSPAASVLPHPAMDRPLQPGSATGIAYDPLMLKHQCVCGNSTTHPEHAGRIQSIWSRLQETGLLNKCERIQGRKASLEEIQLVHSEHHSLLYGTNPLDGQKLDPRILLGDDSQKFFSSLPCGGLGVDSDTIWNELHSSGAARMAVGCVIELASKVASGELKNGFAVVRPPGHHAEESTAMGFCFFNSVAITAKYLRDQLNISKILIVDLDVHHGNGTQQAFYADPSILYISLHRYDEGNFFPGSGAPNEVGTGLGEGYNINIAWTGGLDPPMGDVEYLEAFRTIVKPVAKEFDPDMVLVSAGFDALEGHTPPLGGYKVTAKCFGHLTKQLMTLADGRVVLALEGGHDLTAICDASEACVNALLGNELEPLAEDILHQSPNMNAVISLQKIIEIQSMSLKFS", "test": "Inhibition of recombinant HDAC9 (unknown origin) using Boc-Lys (trifluoroacetyl) AMC as substrate preincubated for 1 hr followed by substrate addition and measured after 2 hrs by fluorescence based microplate reader analysis"}, "[4]": {"biological_target": "T2, Protein deacetylase HDAC6", "test": "Inhibition of recombinant HDAC6 (unknown origin) using Boc-Lys(acetyl)-AMC as substrate preincubated for 120 mins followed by substrate addition and measured after 2 hrs by fluorescence based microplate reader analysis"}, "[5]": {"test": "Brain concentration in CD-1 mouse at 20 mg/kg measured after 4 hrs by LC-MS/MS analysis", "type": "ADME, organism-based", "settings": "read-out: Ct"}, "[6]": {"test": "AUC(0 to infinity) in CD-1 mouse at 20 mg/kg, po measured after 0.083 to 24 hrs by LC-MS/MS analysis", "type": "ADME, organism-based", "parameters": "dose 20 mg/kg, time 0.083-24 hrs, route po", "settings": "in vivo"}, "[7]": {"biological_target": "T3, Protein deacetylase HDAC6 (Homo sapiens) (UniProt Q9UBN7)", "T3 sequence (whole entry)": "T2 sequence (Q9UBN7 whole entry)", "test": "Inhibition of full length recombinant human HDAC6 in MV4-11 cells assessed as accumulation of acetylated alpha-tubulin at 0.1 to 1 uM measured upto 24 hrs by western blot analysis", "type": "cell-based", "settings": "dose 0.1-1 µM, DDE = dose-dependent effect"}, "HEK293": {"test_system": "HEK293", "test": "Cytotoxicity against human HEK293 cells assessed as reduction in cell viability at 100 uM measured after 48 hrs by spectrophotometric analysis", "type": "toxicity, cell-based", "settings": "hek293, 48 h"}, "L02": {"test_system": "L02", "test": "Cytotoxicity against human HL7702 cells assessed as reduction in cell viability at 100 uM measured after 48 hrs by spectrophotometric analysis", "type": "toxicity, cell-based", "settings": "l02, 48 h"}}, "data": [{"compound": "CCNNC(=O)c1ccc(CN2c3ccccc3C=Cc3ccncc32)cc1", "values": [{"measurement": "concentration at 1 h", "setting": "[1]", "value": 7400, "unit": "ng/mL"}, {"measurement": "IC50", "setting": "Histone deacetylase 7", "value": "> 5000", "unit": "nM"}, {"measurement": "IC50", "setting": "[2]", "value": 32.5, "unit": "nM"}, {"measurement": "IC50", "setting": "[3]", "value": "> 5000", "unit": "nM"}, {"measurement": "IC50", "setting": "Histone deacetylase 9", "value": "> 5000", "unit": "nM"}, {"measurement": "IC50", "setting": "[4]", "value": 51, "unit": "nM"}, {"measurement": "concentration at 4 h", "setting": "[5]", "value": 245, "unit": "ng/mL"}, {"measurement": "AUC(0-inf)", "setting": "[6]", "value": 10300, "unit": "ng·h/mL"}, {"measurement": "inhibition", "setting": "[7]", "value": "Dde"}, {"measurement": "Activity", "setting": "HEK293", "value": "Non-Toxic"}, {"measurement": "Activity", "setting": "L02", "value": "Non-Toxic"}]}]}
